For the assay, the system named is rat mesenteric adipocytes. The assay can be described thus: Rate of promoting lipolysis (glycerol quantification in culture supernatant of rat mesenteric adipocytes). The class given is cell-based. The note with it: for Rate of promoting lipolysis of the combination compared with the value obtained by adding the rates of the single preparations (synergy): combined preparation versus sum of single preparations at corresponding concentration; for Rate of promoting lipolysis (combined preparation (+ lactoferrin 10 ppm)) / Rate of promoting lipolysis (combined preparation (+ lactoferrin 30 ppm)) / Rate of promoting lipolysis (single preparation): 48 hours, additive free group = 0%; for Rate of promoting lipolysis (single preparation): relative glycerol amount. The protocol: Promoting the breakdown of the fat by the composition for promoting the lipolysis of the present invention can be confirmed, for example, by conducting Examples. That is, a sample is added to a precursor adipocyte prepared from rat mesenteric tissue, and glycerol is quantified. A commercially available kit such as F-Kit Glycerol (supplied from Roche, product number: 14820) may be used for the quantification. When the amount of obtained glycerol is larger than the amount of glycerol when the sample was not added, it can be confirmed that the lipolysis was promoted.
Two SD rats (male, 10 weeks of age, Japan SLC, Inc.) were used. The rats were euthanized under anesthesia with ether and anatomized, and mesenteric adipose tissue was removed. The obtained tissue was placed in a sterilized petri dish, immersed in ice-cold saline (Otsuka Normal Saline, supplied from Otsuka Pharmaceutical Co., Ltd.) containing 1% antibiotic (Antibiotic-Antimycotic Stabilized, supplied from Sigma, A5955), and washed to remove blood and hairs, particularly lymphocytes (washed several times with different saline until no hair was visible). The tissue was cut using ophthalmic scissors (cut 25 times per 1 g of the tissue), and dispersed by stirring every several minutes in a PBS solution containing 1 mg/mL of collagenase (Collagenase S-1 derived from Actinomycetes, supplied from Nitta Gelatin Inc.) at 37° C. for 40 minutes. Roughly, the tissue from one rat was treated with 20 mL of the collagenase solution.
The tissue suspension was filtrated through a cell strainer with a pore size of 100 μm (REF352360 supplied from BD Falcon). Subsequently, a viscosity of the suspension was reduced by adding 20 mL of DMEM (Dulbecco's Modified Eagle's Medium-high glucose, D5796 supplied from Sigma), and then the suspension was centrifuged at 800 rpm for 10 minutes. An oil layer in an upper layer was removed using an aspirator, and then, the resulting suspension was resuspended and filtrated through a cell strainer with a pore size of 70 μm (REF352350 supplied from BD Falcon). After centrifuging at 800 rpm for 15 minutes, it was confirmed that there was no suspended cell in a supernatant, the presence of a pellet was confirmed, and then the supernatant was removed. The pellet was suspended in 5 mL of DMEM (serum free), the suspension was centrifuged at 800 rpm for 15 minutes, and then the supernatant was removed.
The resulting pellet was gently suspended in 5 mL of a medium for visceral adipocyte differentiation (Visceral Adipocyte Culture Medium, 250 mL, code: VACMR supplied from Primary Cell Co., Ltd.). The suspension was diluted to 10 times, and the number of cells was counted and was 1.015×10^7 cells/mL. 2.54×10^7 cells could be recovered from one rat. The cells suspended in the medium were placed so as to be at 6×10^6 cells/24-wells and 500 μL/well, and their cultivation was started. On the following day, 500 μL of the medium was added, and subsequently the medium was changed every third day. […]. On the 6th day after the start of the cultivation, the medium was changed to a medium containing each sample. A culture supernatant was collected 48 hours after adding the sample, and the cultivation was terminated. It was visually confirmed that there was no cytotoxicity in all of the cultivations.
A concentration of lactoferrin was adjusted to 30 ppm or 10 ppm, and lactoferrin at each concentration was used as the sample for evaluating the effect of lactoferrin alone (Comparative Experimental example 1). Each ingredient other than lactoferrin was used as the sample for evaluating the effect of a single preparation alone as follows. Lactoferrin and each ingredient other than lactoferrin were adjusted to the following concentrations and mixed to use as the sample for evaluating the effect of a combined preparation (Experimental Examples 1 to 9 and Comparative Experimental Examples 2 to 4). […]

Setting [1] is: ingredient 10 ppm + lactoferrin 10 ppm.
Where [2] appears, read: ingredient 10 ppm + lactoferrin 30 ppm.
[3] abbreviates: ingredient 30 ppm + lactoferrin 10 ppm.
Setting [4] is: ingredient 30 ppm + lactoferrin 30 ppm.

`O=C(/C=C/c1ccc(O)c(O)c1)O[C@@H]1C[C@](O)(C(=O)O)C[C@@H](O)[C@H]1O` [Chlorogenic acid, chlorogenic acid]: the “Rate of promoting lipolysis of the combination compared with the value obtained by adding the rates of the single preparations (synergy)” value is reported as “No prominently synergistic effect”. Also, under setting [1], the “Rate of promoting lipolysis (combined preparation (+ lactoferrin 10 ppm))” value worked out at 12%. Further, the “Rate of promoting lipolysis (combined preparation (+ lactoferrin 30 ppm))” value under setting [2] was found to be 20%. Moreover, the “Rate of promoting lipolysis (single preparation)” value (“Rate … (single preparation)” below) (ingredient 10 ppm alone) is reported as 3%. Under setting [3], the “Rate of promoting lipolysis (combined preparation (+ lactoferrin 10 ppm))” value is given as 14%. The “Rate of promoting lipolysis (combined preparation (+ lactoferrin 30 ppm))” value under setting [4] was found to be 22%. For the same compound, the “Rate … (single preparation)” value (ingredient 30 ppm alone) amounted to 5%.
`O=C(O[C@@H]1Cc2c(O)cc(O)cc2O[C@@H]1c1cc(O)c(O)c(O)c1)c1cc(O)c(O)c(O)c1` [Epigallocatechin gallate, epigallocatechin gallate]: the “Rate of promoting lipolysis of the combination compared with the value obtained by adding the rates of the single preparations (synergy)” value was “No prominently synergistic effect”. For the same compound, the “Rate of promoting lipolysis (combined preparation (+ lactoferrin 10 ppm))” value under setting [1] amounted to 11%. Moreover, the “Rate of promoting lipolysis (combined preparation (+ lactoferrin 30 ppm))” value under setting [2] is 21%. In addition, the “Rate … (single preparation)” value (ingredient 10 ppm alone) is on record as −6%. For the same compound, under setting [3], the “Rate of promoting lipolysis (combined preparation (+ lactoferrin 10 ppm))” value was determined as 13%. Besides, the “Rate of promoting lipolysis (combined preparation (+ lactoferrin 30 ppm))” value under setting [4] was found to be 24%. The “Rate … (single preparation)” value (ingredient 30 ppm alone) is recorded as 3%.
On to `CC(=O)CCc1ccc(O)cc1` [Raspberry ketone, 4-(4-hydroxyphenyl)-2-butanone], for which the “Rate of promoting lipolysis (combined preparation (+ lactoferrin 10 ppm))” value is on record as 22% under setting [1]; “more excellent effect of promoting the lipolysis than in the case of lactoferrin 10 ppm alone” (ingredient 10 ppm + lactoferrin 10 ppm, listed as raspberry ketone); 34% under setting [3]. In addition, the “Rate of promoting lipolysis (combined preparation (+ lactoferrin 30 ppm))” value stood at 57% under setting [2] and 70% under setting [4]. Moreover, the “Rate … (single preparation)” value (ingredient 10 ppm alone) is reported as −2%; the “Rate … (single preparation)” value (ingredient 10 ppm alone, listed as raspberry ketone) is recorded as “rather inhibited the lipolysis”; the “Rate … (single preparation)” value (ingredient 30 ppm alone) is given as 10%.
Take Lactoferrin: the “Rate … (single preparation)” value is recorded as 12.1% (ingredient 10 ppm alone) and 21.3% (ingredient 30 ppm alone).

For the origin of these results see US9144556B2, “Composition for promoting lipolysis” (LION CORPORATION, priority 2011, dated 2015).
